Where “and” joins values, the source holds several entries; their conditions need not be identical. Equal values may be shown once.
Columns and labels:
Type in all cases: binding
KRas^G12D = system: T1, KRas^G12D; test: Intact MS photoaffinity labeling screen, KRas G12D (302 nm, LCMS-TOF); details: for MS labeling percentage, KRas: KRas G12D, 302 nm 10 min
T1 construct: purchased GSK/GenScript
Procedure, shortened: (§1)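 Labeling detected as mass additions in deconvoluted intact-protein LCMS-TOF spectra. Protein at 1 μM in PBS was first mixed with one fragment per well on ice for 15 min, followed by 10 min UV exposure at 302 nm.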

[1] = system: CA, Lyo, Myo, BRD4-BD1, KRas G12D, STAT5B-NTD; test: Intact MS labeling compared over all protein targets; details: for Number of targets labeled in higher than 10% amount: of the six protein targets; for Labeling of the other protein targets (vs. preferred target): each of the other targets
Experimental: Using a plate-based format with one fragment per well, each fragment was incubated with the target proteins for 15 min to allow for the formation of non-covalent interactions. The plate was then irradiated at 302 or 365 nm for 10 min to enable the bound fragments to crosslink to the protein[26]. Finally, the results were directly analyzed from the plate using intact protein mass spectrometry by observing the mass additions that correspond to successful labeling (Fig. 2c, for labeling % values see Supplementary data). The library was first characterized against three benchmark proteins like carbonic anhydrase (CA), lysozyme (Lyo), and myoglobin (Myo).
The PhP library was screened against BRD4-BD1 and KRas^G12D as follows. Using a Labcyte Echo® 555 Liquid Handler, 150 nL of fragment solution (20 mM) was transferred into a Greiner 384 low-volume plate (white) to prepare the probe plate. The probe plate was placed on ice. 15 μL of protein stock solution (1 μM BRD4-BD1 (GSK/GenScript) or KRas^G12D (GSK/GenScript) in PBS buffer) was dispensed into wells containing fragments. The plate was left on ice for 15 min for incubation, then irradiated at 302 nm for 10 min, and centrifuged (1000 rpm, 1 min) to remove any bubbles. The plate was then analyzed by LCMS-TOF mass spectrometry (Agilent 1200 series liquid chromatography with Agilent Bio-HPLC PLRP-S (1000 Å, 5 µm × 50 mm × 1.0 mm, PL1312-1502) reverse phase HPLC column at 70 °C equipped with an Agilent G6224 time-of-flight (ToF), see Supplementary Note 2 for the full protocols). The deconvoluted spectra were analyzed using R Studio software.
During the analysis, the column temperature was maintained at a constant 60 °C, and a sample volume of 3 µL was injected for each analysis. Data acquisition was conducted in positive ion mode within the m/z 100–2000 (mass-to-charge ratio) range. For the full protocol and spectra of the hits, see Supplementary Note 2.

STAT5B-NTD [2] = system: T2, STAT5B-NTD; test: Intact MS labeling screen, STAT5B-NTD conjugated with photocatalyst Ir-G2-PEG3-COOH (450 nm); details: 450 nm 10 min;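 further: 0.14 µL of 100 mM DMSO fragment stock added to the conjugate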
T2 construct: His-SUMO (N, cleaved yes); made in house; host or cells: E. coli BL21 RILP
Procedure, shortened: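 Ir-G2-PEG3-COOH photocatalyst (10 eq) activated 30 min with EDC/NHS/BOP, then conjugated to STAT5B-NTD (7 µM) overnight at RT or 1 h at 37 °C in dark. PhP added, 1 h dark, then 450 nm irradiation 10 min at 4 °C; labeling read by intact LC-MS, positive ion mode, m/z 100–2000.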

STAT5B-NTD [3] = system: T2, STAT5B-NTD; test: Intact MS photoaffinity labeling screen, STAT5B-NTD (365 nm, UHPLC-MS); details: for MS labeling percentage, STAT5B: STAT5B-NTD, 365 nm 10 min, no photocatalyst;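 on MS labeling percentage, STAT5B: 0.17 µL of 100 mM DMSO fragment stock added to the protein sample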
Procedure, shortened: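 UV irradiation at 365 nm for 10 min at 4 °C. Labeling read by intact-protein UHPLC-MS, positive ion mode, m/z 100–2000.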

BRD4-BD1 = system: T3, BRD4-BD1; test: Intact MS photoaffinity labeling screen, BRD4-BD1 (302 nm, LCMS-TOF); details: for MS labeling percentage, BRD4: BRD4-BD1, 302 nm 10 min
T3 construct: screened the PhP library against the first bromodomain of BRD4 (BRD4-BD1); purchased GSK/GenScript
Procedure, shortened: as §1

myoglobin (Myo) = test: Intact protein MS photoaffinity labeling screen, myoglobin; details: intact protein MS after 10 min irradiation
Procedure, shortened: (§2)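 Read-out: intact protein MS taken straight from the plate, with successful labeling seen as added mass on the protein and expressed as labeling %. Beforehand, every fragment sat alone in a well with the protein for 15 min so non-covalent interactions could form.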

lysozyme (Lyo) = test: Intact protein MS photoaffinity labeling screen, lysozyme; details: intact protein MS after 10 min irradiation
Procedure, shortened: as §2

[4] = system: carbonic anhydrase II (CA); test: Intact protein MS photoaffinity labeling screen, carbonic anhydrase; details: intact protein MS after 10 min irradiation
Procedure, shortened: as §2

[5] = PhP library sheet "PhP", binary flag printed as 0 or 1, key not given
[6] = hit flag 1/0, sheet PhP, photoaffinity labeling screen
[7] = hit status flag, 1 = hit, 0 = no hit

Compound	MS labeling percentage, KRas (KRas^G12D) [%]	KRAS-G12D (experimental hit status) (KRas^G12D; [5])	Number of targets labeled in higher than 10% amount [1]	MS labeling percentage, STAT5B+photocat (STAT5B-NTD [2]) [%]	STAT5B-NTD (experimental hit status) (STAT5B-NTD [3]; [5])	MS labeling percentage, STAT5B (STAT5B-NTD [3]) [%]	MS labeling percentage, BRD4 (BRD4-BD1) [%]	BRD4-BD1 (experimental hit status) (BRD4-BD1; [5])	MS labeling percentage, Myo (myoglobin (Myo)) [%]	MS labeling percentage, Lyo (lysozyme (Lyo)) [%]	MS labeling percentage, CA [4] [%]	Labeling of the other protein targets (vs. preferred target) [1]	also measured
COc1ccc(NS(=O)(=O)c2cccc(NC(=O)CCC3(C)N=N3)c2)cc1 [PhP087, COc1ccc(cc1)NS(=O)(=O)c2cccc(c2)NC(=O)CCC3(C)N=N3]	12.6	0	two	8	0	2.9	0.7	0	3.2	1.5	18.9	–	–
COc1ccc(CCNC(=O)CCC2(C)N=N2)c2ccccc12 [PhP034, c1cccc(c12)c(OC)ccc2CCNC(=O)CCC3(C)N=N3]	67.8	–	two	1.1	–	0	10.6	–	1.7	1.7	4.7	–	experimental hit status KRAS-G12D (KRas^G12D; 0/1 flag): 0; experimental hit status STAT5B-NTD (STAT5B-NTD [3]; 0/1 flag): 0; experimental hit status BRD4-BD1 (BRD4-BD1; 0/1 flag): 0
CC1(CCC(=O)NCc2cc3ccccc3[nH]2)N=N1 [PhP040, N1=NC1(C)CCC(=O)NCc(c2)[nH]c(c23)cccc3]	1.9	–	–	74	–	75	2.1	–	0.5	0.3	0.7	> 3% and < 3%	KRAS-G12D (experimental hit status) (KRas^G12D; [6]): 0; STAT5B-NTD (experimental hit status) (STAT5B-NTD [3]; [6]): 0; BRD4-BD1 (experimental hit status) (BRD4-BD1; [6]): 0
CC1(CCC(=O)NCc2ccc(CNC(=O)OC(C)(C)C)cc2)N=N1 [PhP099, CC(C)(C)OC(=O)NCc1ccc(cc1)CNC(=O)CCC2(C)N=N2]	7.7	–	–	19.3	–	2.9	1.1	–	4.3	2.2	12.8	–	KRAS-G12D (experimental hit status) (KRas^G12D; [7]): 0; Labeling efficiency over all protein targets (mean ± spread) ([1]; over all protein targets): 5.2 ± 4%; STAT5B-NTD (experimental hit status) (STAT5B-NTD [3]; [7]): 0; BRD4-BD1 (experimental hit status) (BRD4-BD1; [7]): 0
Cc1nc(CCNC(=O)CCC2(C)N=N2)sc1C [PhP092, Cc1nc(sc1C)CCNC(=O)CCC2(C)N=N2]	0.1	0	–	0.8	0	0	0.5	0	0.1	35.6	0.3	> 1% and < 1%	–
CC1(CCC(=O)NCc2ccc(-c3ccc(O)cc3)cc2)N=N1 [PhP088, N1=NC1(C)CCC(=O)NCc2ccc(cc2)-c3ccc(O)cc3]	0.2	0	–	5.7	0	0	0.5	0	0.2	4.8	0	> 1% and < 1%	–

Source: PMC11292009, “Mapping protein binding sites by photoreactive fragment pharmacophores” (Communications Chemistry, 2024)
